# From US7569603B2, “Ester compound and its use in pest control” (Sumitomo Chemical Company, Limited, priority 2006, dated 2009)
# Test system: Adult houseflies
# Assay: Knock-down test on adult houseflies by spraying oil solution in a cubic chamber
# Type: in vivo, housefly (Musca domestica)
# Conditions: 0.7 ml of 0.00625% oil solution sprayed into 70 cm cubic chamber; 5 male and 5 female adult houseflies; counted up to 10 minutes after spraying
# Method: A solution of 0.00625 part of the present compound (1) in 10 parts of dichloromethane was mixed with 89.99375 parts of deodorized kerosene to obtain a 0.00625% oil solution.
# Adult houseflies (5 males and 5 females) were left in a cubic chamber (70 cm at each side). Into the chamber, 0.7 ml of 0.00625% oil solution of the present compound (1) prepared above was sprayed with a spray gun at a pressure of 8.8×10^4 Pa from a small window on the side of the chamber. Then, up to 10 minutes after spraying, the number of knocked-down insects was counted with time. From the results, a time required for knocking down 90% of the tested insects (KT90) was calculated.
# In addition, the same test was carried out that 5-benzyl-3-furylmethyl (1R)-cis-2,2-dimethyl-3-((E)-3-ethoxy-3-oxo-1-propenyl)cyclopropanecarboxylate represented by the formula:
# [drawing 6] (hereinafter, referred to as the comparative compound (A)), which is the compound described in GB-A-1413491 as compound P19/2; and 3-phenylbenzyl (1R)-cis-2,2-dimethyl-3-((E)-3-ethoxy-2-fluoro-3-oxo-1-propenyl)cyclopropanecarboxylate represented by the formula:
# [drawing 7] (hereinafter, referred to as the comparative compound (B)), which is the compound described in U.S. Pat. No. 4,489,093 as example 12 were used as comparative compounds (repeated twice).
row,SMILES,KT90 (time required for knocking down 90% of the tested insects) [min]
1,"CCOC(=O)/C=C/[C@H]1[C@@H](C(=O)OCc2coc(Cc3ccccc3)c2)C1(C)C [Comparative compound (A), 5-benzyl-3-furylmethyl (1R)-cis-2,2-dimethyl-3-((E)-3-ethoxy-3-oxo-1-propenyl)cyclopropanecarboxylate]",8.0
2,"CCOC(=O)/C(F)=C\[C@H]1[C@@H](C(=O)OCc2cccc(-c3ccccc3)c2)C1(C)C [Comparative compound (B), 3-phenylbenzyl (1R)-cis-2,2-dimethyl-3-((E)-3-ethoxy-2-fluoro-3-oxo-1-propenyl)cyclopropanecarboxylate]",8.9
3,"CCOC(=O)/C(F)=C\[C@H]1[C@@H](C(=O)OCc2coc(Cc3ccccc3)c2)C1(C)C [Present compound (1), 5-benzyl-3-furylmethyl (1R)-cis-2,2-dimethyl-3-((E)-3-ethoxy-2-fluoro-3-oxo-1-propenyl)cyclopropanecarboxylate]",2.9
